Assay results as given in patent publication US20120316200A1, “PYRIDONE DERIVATIVES” (Merck Sharp & Dohme Corp., priority 2010, published 2012).

Molecular target: T1, human MCH-1R (Homo sapiens, UniProt Q99705)
T1 construct: expressed in transfected cells; host or cells: CHO-K1 (American Type Culture Collection)
Assay: MCH-1R binding inhibition ([125I]MCH binding to membranes of MCH-1R expression CHO-K1 cells)
Settings: 50 pM [125I]MCH, membranes of CHO-K1 cells expressing human MCH-1R, 25° C., one hour, pH 7.4; read-out: IC50 (50% inhibition concentration for specific [125I]MCH binding)
Protocol: A cDNA sequence encoding human MCH-1R [FEBS Letters, Vol. 398, 253 (1996); Biochimica et Biophisica Acta, Vol. 1401, 216 (1998)] was cloned to a plasmid vector pEF/myc/cyto (manufactured by Invitrogen). The obtained expression vector was transfected to a host cell CHO-K1 (American Type Culture Collection) using Lipofectamine Plus reagent (manufactured by Life Technology) to provide MCH-1R expression cells.
Membrane samples prepared from the MCH-1R expression cells were incubated with a test compound and 50 pM [^125I]MCH (manufactured by NEN) in an assay buffer (50 mM Tris buffer containing 10 mM magnesium chloride, 2 mM ethylenediamine tetraacetate, 0.01% bacitracin, and 0.2% bovine serum albumin; pH 7.4) at 25° C. for one hour, followed by filtration through a glass filter GF/C (manufactured by Wattman). The glass filter was washed with 50 mM Tris buffer (pH 7.4) containing 10 mM magnesium chloride, 2 mM ethylenediamine tetraacetate, and 0.04% Tween-20, and then the radioactivity on the glass filter was determined. Non-specific binding was measured in the presence of 1 μM human MCH, and, with respect to each test compound, 50% inhibition concentration (IC50 value) for specific [^125I]MCH binding was determined.

T1 sequence (Q99705 whole entry): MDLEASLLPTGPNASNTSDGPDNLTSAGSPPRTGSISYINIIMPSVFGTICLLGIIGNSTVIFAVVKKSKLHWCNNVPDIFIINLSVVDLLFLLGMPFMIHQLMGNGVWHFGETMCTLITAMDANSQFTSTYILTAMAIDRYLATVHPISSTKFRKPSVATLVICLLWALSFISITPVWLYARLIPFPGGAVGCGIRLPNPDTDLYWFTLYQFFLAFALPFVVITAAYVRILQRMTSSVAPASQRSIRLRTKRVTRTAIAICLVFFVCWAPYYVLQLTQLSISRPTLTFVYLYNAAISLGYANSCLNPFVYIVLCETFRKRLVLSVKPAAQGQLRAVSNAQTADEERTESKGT

SMILES | IC50
O=c1cc(OCc2ccc(Cl)cn2)ccn1-c1ccc(OC[C@H](O)C2CC2)cc1 [Example 22] | 101 nM
O=c1cc(OCc2ccc(Cl)cn2)ccn1-c1ccc(OC[C@@H](O)C2CC2)cc1 [Example 26, 4-[(5-chloropyridin-2-yl)methoxy]-1-{4-[(2S)-2-cyclopropyl-2-hydroxyethoxy]phenyl}pyridin-2(1H)-one] | 91 nM
COc1cc(-n2ccc(OCc3ccc(Cl)cn3)cc2=O)ccc1OC[C@@H](O)C1CC1 [Example 24, 4-[(5-chloropyridin-2-yl)methoxy]-1-{4-[(2S)-2-cyclopropyl-2-hydroxyethoxy]-3-methoxyphenyl}pyridin-2(1H)-one] | 36 nM
Cc1cc(-n2ccc(OCc3ccc(F)cc3)cc2=O)ccc1OCC(C)(C)O [Example 2, 4-[(4-Fluorobenzyloxy)]-1-[4-(2-hydroxy-2-methylpropoxy)-3-methylphenyl]pyridin-2(1H)-one] | 11 nM
CC(C)(O)COc1ccc(-n2ccc(OCc3ccc(F)cc3)cc2=O)cc1F [Example 12, 4-[(4-fluorobenzyl)oxy]-1-[3-fluoro-4-(2-hydroxy-2-methylpropoxy)phenyl]pyridin-2(1H)-one] | 97 nM
COc1cc(-n2ccc(OCc3ccc(F)cc3)cc2=O)ccc1OCCC(C)(C)O [Example 8, 4-(4-Fluorobenzyloxy)-1-[4-(3-hydroxy-3-methylbutoxy)-3-methoxyphenyl]pyridin-2-(1H)-one] | 84 nM
Cc1cc(-n2ccc(OCc3ccc(F)cc3)cc2=O)ccc1OCC(=O)OC(C)C [Example 18, propan-2-yl (4-{4-[(4-fluorobenzyl)oxy]-2-oxopyridin-1(2H)-yl}-2-methylphenoxy)acetate] | 23 nM
CC(C)(CO)COc1ccc(-n2ccc(OCc3ccc(F)cc3)cc2=O)cc1 [Example 6, 4-[(4-Fluorobenzyl)oxy]-1-[4-(3-hydroxy-2,2-dimethylpropoxy)phenyl]pyridin-2(1H)-one] | 63 nM
COc1cc(-n2ccc(OCc3ccc(Cl)cn3)cc2=O)ccc1OC[C@H](O)C1CC1 [Example 21, 4-[(5-chloropyridin-2-yl)methoxy]-1-{4-[(2R)-2-cyclopropyl-2-hydroxyethoxy]-3-methoxyphenyl}pyridin-2(1H)-one] | 33 nM
CC(C)(O)COc1ccc(-n2ccc(OCc3ccc(F)cc3)cc2=O)cc1Cl [Example 10, 1-[3-chloro-4-(2-hydroxy-2-methylpropoxy)phenyl]-4-[(4-fluorobenzyl)oxy]pyridin-2(1H)-one] | 11 nM
Cc1cc(-n2ccc(OCc3ccc(F)cc3)cc2=O)ccc1OCC1(O)CC1 [Example 5, 4-[(4-Fluorobenzyl)oxy]-1-{4-[(1-hydroxycyclopropyl)methoxy]-3-methylphenyl}pyridin-2(1H)-one] | 11 nM
COC(=O)COc1ccc(-n2ccc(OCc3ccc(F)cc3)cc2=O)cc1OC [Example 20, methyl (4-{4-[(4-fluorobenzyl)oxy]-2-oxopyridin-1(2H)-yl}-2-methoxyphenoxy)acetate] | 61 nM
CC(C)(O)CCOc1ccc(-n2ccc(OCc3ccc(F)cc3)cc2=O)cc1 [Example 9, 4-[(4-Fluorobenzyl)oxy]-1-[4-(3-hydroxy-3-methylbutoxy)phenyl]pyridin-2 (1H)-one] | 23 nM
COC(=O)COc1ccc(-n2ccc(OCc3ccc(F)cc3)cc2=O)cc1C [Example 19, methyl (4-{4-[(4-fluorobenzyl)oxy]-2-oxopyridin-1(2H)-yl}-2-methylphenoxy)acetate] | 31 nM
CC(C)(O)c1ccc2cc(-n3ccc(OCc4ccc(F)cc4)cc3=O)ccc2n1 [Example 7, 4-(4-Fluorobenzyloxy)-1-[2-(2-hydroxypropan-2-yl)quinolin-6-yl]pyridin-2-(1H)-one] | 38 nM
